{"source": "patent US20090197955A1", "about": "“METHODS OF IMPROVING DHA DEPOSITION AND RELATED FUNCTION AND/OR DEVELOPMENT” (Monsanto Company, priority 2008, published 2009)", "key": {"[1]": {"test": "Brain phospholipid fatty acid composition of pigs fed SDA", "format": "in vivo", "settings": "for Brain phospholipid DHA, percent of total fatty acids / Brain phospholipid EPA, percent of total fatty acids / Brain phospholipid SDA, percent of total fatty acids: 35 days", "experimental": "(§1) In addition to measuring long-chain fatty acid incorporation into tissues, additional research was undertaken to understand the alterations in fatty acid concentration in the brain and heart tissues. In particular, DHA is known to be a significant fraction of brain composition. As such, the following experiments were conducted with brain matter extracted from the pigs used in the study above. After completion of the feeding phase, animals were slaughtered and tissues were collected for evaluation. A sample of brain was obtained by making a cup from the occipital condyle at the base of the skull to the back of the eye. A portion of the brain from the cerebral cortex, and some of the mid brain was collected. About 1 g of frozen heart or brain tissue was pulverized in a stainless steel mortar and pestle maintained at −70° C. It was then suspended in 2 mL of ice-cold saline and sonicated on ice to thoroughly disperse the tissue. The lipids were extracted with methylene chloride:methanol. The PL fractions were isolated by thin layer chromatography and methylated for 10 minutes in BF3-methanol at 100° C. After extraction of the fatty acid methyl esters (FAME) with hexane:water, their composition was analyzed in a GC2010 (Shimadzu Scientific Instruments, Columbia, Md.) using a fused silica capillary columns (SP-2560, 100 m length, 0.25 mm internal diameter, 0.25 um film thickness, Supelco, Bellefonte, Pa.). A weighed external standard fatty acid (FA) mixture (GLC727, NuCheck Prep, Elysian, Minn.) was included to correct for potential differences in FA response factors. The response factor for palmitic acid of is assumed to be 1.0. Results were expressed as a percent of total identified FA (for composition endpoints) and as mg FA/g tissue."}, "[2]": {"test": "Brain outer cortex lipid fatty acid analysis, control vs 0.8% SDA", "format": "in vivo, pigs", "experimental": "About 1 g of frozen heart or brain tissue was pulverized in a stainless steel mortar and pestle maintained at −70° C. It was then suspended in 2 mL of ice-cold saline and sonicated on ice to thoroughly disperse the tissue. The lipids were extracted with methylene chloride:methanol. […] After extraction of the fatty acid methyl esters (FAME) with hexane:water, their composition was analyzed in a GC2010 (Shimadzu Scientific Instruments, Columbia, Md.) using a fused silica capillary columns (SP-2560, 100 m length, 0.25 mm internal diameter, 0.25 um film thickness, Supelco, Bellefonte, Pa.). A weighed external standard fatty acid (FA) mixture (GLC727, NuCheck Prep, Elysian, Minn.) was included to correct for potential differences in FA response factors. The response factor for palmitic acid of is assumed to be 1.0. Results were expressed as a percent of total identified FA (for composition endpoints) and as mg FA/g tissue. To further explore the effect of SDA on brain tissue composition, samples from the four control and four high dose (Treatment 5) animals were shaved to isolate the outer cortex. This was done to test the hypothesis that white, myelinated tissue found in the mid brain may not accumulate DHA as readily as gray matter in the cerebral cortex."}, "[3]": {"settings": "cited from earlier work"}, "[4]": {"test": "Heart phospholipid fatty acid composition of pigs fed SDA", "format": "in vivo", "settings": "for Average heart DHA level, percent of total fatty acids / Average heart EPA level, percent of total fatty acids / Average heart SDA level, percent of total fatty acids: 35 days", "experimental": "as §1, with “After” for “In addition to measuring long-chain fatty acid incorporation into tissues, additional research was undertaken to understand the alterations in fatty acid concentration in the brain and heart tissues. In particular, DHA is known to be a significant fraction of brain composition. As such, the following experiments were conducted with brain matter extracted from the pigs used in the study above. After”"}, "[5]": {"settings": "0.8% SDA (Treatment 5), average"}}}
{"smiles": "CC/C=C\\C/C=C\\C/C=C\\C/C=C\\CCCCC(=O)O", "note": "[SDA, stearidonic acid]", "values": [{"measurement": "Brain phospholipid DHA, percent of total fatty acids", "setting": "[1]; SDA 0.2%", "value": 10.07, "unit": "%"}, {"measurement": "Brain phospholipid EPA, percent of total fatty acids", "setting": "[1]; SDA 0.2%", "value": 0.02, "unit": "%"}, {"measurement": "Brain phospholipid SDA, percent of total fatty acids", "setting": "[1]; SDA 0.2%", "value": 0.01, "unit": "%"}, {"measurement": "Brain phospholipid DHA, percent of total fatty acids", "setting": "[1]; SDA 0.4%", "value": 9.15, "unit": "%"}, {"measurement": "Brain phospholipid EPA, percent of total fatty acids", "setting": "[1]; SDA 0.4%", "value": 0.04, "unit": "%"}, {"measurement": "Brain phospholipid SDA, percent of total fatty acids", "setting": "[1]; SDA 0.4%", "value": 0.01, "unit": "%"}, {"measurement": "Brain phospholipid DHA, percent of total fatty acids", "setting": "[1]; SDA 0.6%", "value": 10.99, "unit": "%"}, {"measurement": "Brain phospholipid EPA, percent of total fatty acids", "setting": "[1]; SDA 0.6%", "value": 0.06, "unit": "%"}, {"measurement": "Brain phospholipid SDA, percent of total fatty acids", "setting": "[1]; SDA 0.6%", "value": 0.01, "unit": "%"}, {"measurement": "Brain phospholipid DHA, percent of total fatty acids", "setting": "[1]; SDA 0.8%", "value": 11.21, "unit": "%"}, {"measurement": "Brain phospholipid EPA, percent of total fatty acids", "setting": "[1]; SDA 0.8%", "value": 0.06, "unit": "%"}, {"measurement": "Brain phospholipid SDA, percent of total fatty acids", "setting": "[1]; SDA 0.8%", "value": 0.01, "unit": "%"}, {"measurement": "Deposition of EPA and DHA in the brain", "setting": "[1]; SDA feeding", "value": "dose response deposition of EPA and DHA in the brain"}, {"measurement": "C14:0, brain outer cortex", "setting": "[2]; [5]", "value": 0.50, "unit": "%"}, {"measurement": "C16:0, brain outer cortex", "setting": "[2]; [5]", "value": 24.20, "unit": "%"}, {"measurement": "C16:1n7, brain outer cortex", "setting": "[2]; [5]", "value": 1.05, "unit": "%"}, {"measurement": "C16:1n7t, brain outer cortex", "setting": "[2]; [5]", "value": 0.28, "unit": "%"}, {"measurement": "C18:0, brain outer cortex", "setting": "[2]; [5]", "value": 16.53, "unit": "%"}, {"measurement": "C18:1n9, brain outer cortex", "setting": "[2]; [5]", "value": 19.14, "unit": "%"}, {"measurement": "C18:1t, brain outer cortex", "setting": "[2]; [5]", "value": 0.08, "unit": "%"}, {"measurement": "C18:2n6, brain outer cortex", "setting": "[2]; [5]", "value": 0.63, "unit": "%"}, {"measurement": "C18:2n6t, brain outer cortex", "setting": "[2]; [5]", "value": 0.23, "unit": "%"}, {"measurement": "C18:3n3, brain outer cortex", "setting": "[2]; [5]", "value": 0.15, "unit": "%"}, {"measurement": "C18:3n6, brain outer cortex", "setting": "[2]; [5]", "value": 0.02, "unit": "%"}, {"measurement": "C18:4n3, brain outer cortex", "setting": "[2]; [5]", "value": 0.02, "unit": "%"}, {"measurement": "C20:1n9, brain outer cortex", "setting": "[2]; [5]", "value": 0.23, "unit": "%"}, {"measurement": "C20:2n6, brain outer cortex", "setting": "[2]; [5]", "value": 0.06, "unit": "%"}, {"measurement": "C20:3n6, brain outer cortex", "setting": "[2]; [5]", "value": 0.35, "unit": "%"}, {"measurement": "C20:4n6, brain outer cortex", "setting": "[2]; [5]", "value": 11.48, "unit": "%"}, {"measurement": "C20:5n3, brain outer cortex", "setting": "[2]; [5]", "value": 0.15, "unit": "%"}, {"measurement": "C22:4, brain outer cortex", "setting": "[2]; [5]", "value": 2.90, "unit": "%"}, {"measurement": "C22:5n3, brain outer cortex", "setting": "[2]; [5]", "value": 0.98, "unit": "%"}, {"measurement": "C22:5n6, brain outer cortex", "setting": "[2]; [5]", "value": 3.58, "unit": "%"}, {"measurement": "C22:6n3, brain outer cortex", "setting": "[2]; [5]", "value": 17.38, "unit": "%"}, {"measurement": "C24:0, brain outer cortex", "setting": "[2]; [5]", "value": 0.02, "unit": "%"}, {"measurement": "C24:1n9, brain outer cortex", "setting": "[2]; [5]", "value": 0.05, "unit": "%"}, {"measurement": "OMX-3 (Omega 3 Index, sum of EPA and DHA), brain outer cortex", "setting": "[2]; [5]", "value": 17.53, "unit": "%"}, {"measurement": "DHA and EPA in total lipid extract of the outer cortex region", "setting": "[2]; Treatment 5 vs control", "value": "increase in DHA and EPA"}, {"measurement": "Amount of SDA relative to EPA needed to enrich blood tissues with an equivalent amount of EPA", "setting": "[3]", "value": 3, "unit": "times"}, {"measurement": "Average heart DHA level, percent of total fatty acids", "setting": "[4]; SDA 0.2%", "value": 0.49, "unit": "%"}, {"measurement": "Average heart EPA level, percent of total fatty acids", "setting": "[4]; SDA 0.2%", "value": 1.82, "unit": "%"}, {"measurement": "Average heart SDA level, percent of total fatty acids", "setting": "[4]; SDA 0.2%", "value": 0.05, "unit": "%"}, {"measurement": "Average heart DHA level, percent of total fatty acids", "setting": "[4]; SDA 0.4%", "value": 0.42, "unit": "%"}, {"measurement": "Average heart EPA level, percent of total fatty acids", "setting": "[4]; SDA 0.4%", "value": 3.86, "unit": "%"}, {"measurement": "Average heart SDA level, percent of total fatty acids", "setting": "[4]; SDA 0.4%", "value": 0.13, "unit": "%"}, {"measurement": "Average heart DHA level, percent of total fatty acids", "setting": "[4]; SDA 0.6%", "value": 0.57, "unit": "%"}, {"measurement": "Average heart EPA level, percent of total fatty acids", "setting": "[4]; SDA 0.6%", "value": 4.83, "unit": "%"}, {"measurement": "Average heart SDA level, percent of total fatty acids", "setting": "[4]; SDA 0.6%", "value": 0.19, "unit": "%"}, {"measurement": "Average heart DHA level, percent of total fatty acids", "setting": "[4]; SDA 0.8%", "value": 0.62, "unit": "%"}, {"measurement": "Average heart EPA level, percent of total fatty acids", "setting": "[4]; SDA 0.8%", "value": 6.71, "unit": "%"}, {"measurement": "Average heart SDA level, percent of total fatty acids", "setting": "[4]; SDA 0.8%", "value": 0.36, "unit": "%"}, {"measurement": "Dose response for deposition of SDA, EPA and DHA in heart phospholipids", "setting": "[4]; regression analysis on the mean response at each dose level", "value": "statistically significant (p<0.05)"}]}
